This is an account of results in patent publication US20070009597A1, “Active substance combination comprising a compound with npy receptor affinity and a compound with 5-ht6 receptor affinity” (LABORATORIOS DEL DR. ESTEVE S.A., priority 2003, published 2007).

Where a name gives a salt, the structure may show the parent alone. Read-outs that look alike come from different tables or passages of the source.

The target in this test is T1, recombinant human 5HT6 receptor (Homo sapiens, UniProt P50406).
T1 construct: purchased Receptor Biology; host or cells: HEK-293
T1 sequence (P50406 whole entry): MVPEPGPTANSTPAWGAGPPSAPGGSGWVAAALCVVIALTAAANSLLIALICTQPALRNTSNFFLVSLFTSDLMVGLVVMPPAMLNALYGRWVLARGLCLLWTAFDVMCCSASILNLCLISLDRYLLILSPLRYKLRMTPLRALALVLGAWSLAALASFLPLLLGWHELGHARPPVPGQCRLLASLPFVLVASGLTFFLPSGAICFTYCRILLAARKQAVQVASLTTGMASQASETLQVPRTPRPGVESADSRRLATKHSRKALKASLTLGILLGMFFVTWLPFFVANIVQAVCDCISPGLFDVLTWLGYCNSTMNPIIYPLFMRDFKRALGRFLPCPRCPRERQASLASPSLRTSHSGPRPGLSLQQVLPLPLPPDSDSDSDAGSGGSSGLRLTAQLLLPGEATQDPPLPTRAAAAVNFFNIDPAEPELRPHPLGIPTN
Description: Binding to the 5HT6 serotonin receptor ([3H]-LSD, HEK-293 cell membranes). The following applies: for inhibition at 1 µM: read-out: % Inhibition 10^−6 M. How it is done: Binding to the 5HT6 Serotonin Receptor
The respective part of the literature descriptions is incorporated here by reference and form part of the disclosure. […] The assays are carried out in triplicate.

Where [1] appears, read: 10^−6 M, table 1f, compounds of general formula (If).
[2] abbreviates: table 1f, compounds of general formula (If).
Setting [3] is: 10^−6 M, table 1c, compounds of general formula (Ic).
Where [4] appears, read: table 1c, compounds of general formula (Ic).
Where [5] appears, read: 10^−6 M, table 1d, compounds of general formula (Id).
[6] abbreviates: table 1e, compounds of general formula (Ie).
Where [7] appears, read: table 1h, compounds of general formula (Ih).
[8] abbreviates: 10^−6 M, table 2b, compounds of general formula (Ib).

With `CN(C)CCn1ccc2ccc(NS(=O)(=O)c3ccc(Oc4ccccc4)cc3)cc21` [Example 7f, N-[1-(2-Dimethylaminoethyl)-1H-indol-6-yl]-4-phenoxybenzenesulfonamide], the “% Inhibition 10^−6 M” value under setting [1] was 95.1%. The Ki (as a rule, the equilibrium dissociation constant of an inhibitor or competing ligand from its target) under setting [2] was 119 nM.
Regarding `CN(C)CCn1ccc2ccc(NS(=O)(=O)c3cccc4ccccc34)cc21` [Example 3f, N-[1-(2-Dimethylaminoethyl)-1H-indol-6-yl]-naphthalene-1-sulfonamide], the “% Inhibition 10^−6 M” value under setting [1] is given as 95.3%. The Ki under setting [2] came to 19.8 nM.
`CN1CCC(c2c[nH]c3ccc(NS(=O)(=O)c4ccc(-c5ccccc5)cc4)cc23)CC1` [Example 15c, N-[3-(1-methylpiperidin-4-yl)-1H-indol-5-yl]-4-phenylbenzenesulphonamide]: the “% Inhibition 10^−6 M” value under setting [3] was 97.4 ± 0.8%. Under setting [4], the Ki was found to be 6.8 nM.
As for `CN(C)CCn1ccc2c(NS(=O)(=O)c3cccc4ccccc34)cccc21` [Example 3d, N-[1-(2-dimethylaminoethyl)-1H-indole-4-yl]-naphtalene-1-sulfonamide], the “% Inhibition 10^−6 M” value under setting [5] turned out to be 94.8%.
Take `CN(C)CCn1ccc2cc(NS(=O)(=O)c3cc(Cl)cc(Cl)c3)ccc21` [Example 12e, N-[1-(2-dimethylaminoethyl)-1H-indole-5-yl]-3,5-dichlorobenzenesulfonamide]: the Ki under setting [6] was 105 nM.
For `Cc1cccc2c1N(C1CCN(S(=O)(=O)c3cccc4ccccc34)CC1)C(=O)OC2` [Example 4b, 8-Methyl-1-[1-(naphthyl-1-sulfonyl)-piperidine-4-yl]-1,4-dihydro-benzo[d][1,3]oxazine-2-one], the Ki amounted to 246 nM.
On to `Cc1cccc2c1N(C1CCN(S(=O)(=O)c3cccc4cccnc34)CC1)C(=O)OC2` [Example 6b, 8-Methyl-1-[1-(quinolinyl-8-sulfonyl)-piperidine-4-yl]-1,4-dihydro-benzo[d][1,3]oxazine-2-one], for which the Ki (table 2b, compounds of general formula (Ib)) came to 166 nM.
`CN1CCC(c2c[nH]c3ccc(NS(=O)(=O)c4ccc(Cl)s4)cc23)CC1` [Example 14c, N-[3-(1-methylpiperidin-4-yl)-1H-indol-5-yl]-5-chlorothiophene-2-sulphonamide]: the “% Inhibition 10^−6 M” value under setting [3] is reported as 95.7 ± 3.4%. In addition, the Ki under setting [4] is 24.3 nM.
For the compound `O=S(=O)(C1CCCCC1)n1cc(C2=CCN3CCCC3C2)c2cc(F)ccc21` (centres unmarked) [Example 4h, 1-cyclohexanesulfonyl-5-fluoro-3-(1,2,3,5,8,8a-hexahydro-indolizine-7-yl)-1H-indole], under setting [7], the Ki came out at 191 nM.
As for `CN(C)CCn1ccc2ccc(NS(=O)(=O)CCc3cccc4ccccc34)cc21` [Example 6f, N-[1-(2-Dimethylaminoethyl)-1H-indol-6-yl]-2-(naphthalene-1-yl)-ethanesulfonamide], under setting [1], the inhibition (commonly the percentage by which the read-out fell short of the control) at 1 µM came to 94.5%. Further, the Ki under setting [2] was 74.5 nM.
As to `O=C1OCc2ccccc2N1C1CCN(S(=O)(=O)c2cccc3cccnc23)CC1` [Example 5b], the Ki was 152 nM.
`CN1CCC(c2c[nH]c3ccc(NS(=O)(=O)c4cccc5cccnc45)cc23)CC1` [Example 16c, N-[3-(1-methylpiperidin-4-yl)-1H-indol-5-yl]quinoline-8-sulphonamide]: the “% Inhibition 10^−6 M” value under setting [3] turned out to be 94.4 ± 8.6%. Moreover, under setting [4], the Ki was 21.2 nM.
Take `Cc1c(S(=O)(=O)Nc2cccc3c2ccn3CCN(C)C)sc2ccc(Cl)cc12` [Example 1d, N-[1-(2-dimethylaminoethyl)-1H-indole-4-yl]-5-chloro-3-methylbenzo[b]thiophene-2-sulfonamide]: the inhibition at 1 µM under setting [5] was 83.9%.
Turning to `CN(C)CCn1ccc2ccc(NS(=O)(=O)c3ccc(-c4ccccc4)cc3)cc21` [Example 5f, N-[1-(2-Dimethylaminoethyl)-1H-indol-6-yl]-4-phenylbenzenesulfonamide], under setting [1], the inhibition at 1 µM was 93.4%.
For the compound `CN(C)CCn1ccc2c(NS(=O)(=O)c3ccc(-c4ccccc4)cc3)cccc21` [Example 4d, N-[1-(2-dimethylaminoethyl)-1H-indole-4-yl]-4-phenylbenzenesulfonamide], the inhibition at 1 µM under setting [5] was 46.6%.
For the compound `CN1CC=C(c2cn(S(=O)(=O)C3CCCCC3)c3ccc(N)cc23)CC1` [Example 3h, 5-amino-1-cyclohexanesulfonyl-3-(1-methyl-1,2,3,6-tetrahydropyridine-4-yl)-1H-indole], under setting [7], the Ki was determined as 55.1 nM.
Consider `CN(C)CCn1ccc2cc(NS(=O)(=O)c3cccc4ccccc34)ccc21` [Example 3e, N-[1-(2-dimethylaminoethyl)-1H-indole-5-yl]-naphthalene-1-sulfonamide], for which the Ki under setting [6] was 94.2 nM.
For `CN(C)CCn1ccc2c(NS(=O)(=O)c3ccc(Oc4ccccc4)cc3)cccc21` [Example 6d, N-[1-(2-dimethylaminoethyl)-1H-indole-4-yl]-4-phenoxybenzenesulfonamide], the “% Inhibition 10^−6 M” value under setting [5] stood at 55.8%.
On to `Cc1c(S(=O)(=O)Nc2ccc3ccn(CCN(C)C)c3c2)sc2ccc(Cl)cc12` [Example 1f, N-[1-(2-Dimethylaminoethyl)-1H-indol-6-yl]-5-chloro-3-methylbenzo[b]thiophene-2-sulfonamide], for which the inhibition at 1 µM under setting [1] was 98.6%. Moreover, the Ki under setting [2] was found to be 90.2 nM.
With `CN1CC=C(c2cn(S(=O)(=O)C3CCCCC3)c3ccc([N+](=O)[O-])cc23)CC1` [Example 1h, 1-cyclohexanesulfonyl-3-(1-methyl-1,2,3,6-tetrahydropyridine-4-yl)-5-nitro-1H-indole], the inhibition at 1 µM (10^−6 M, table 1h, compounds of general formula (Ih)) worked out at 59.8 ± 3%.
With `CCN(CC)CCc1c[nH]c2ccc(NS(=O)(=O)c3cc(Cl)cc(Cl)c3)cc12` [Example 4c, N-[3-(2-diethylaminoethyl)-1H-indol-5-yl]-3,5-dichlorobenzenesulphonamide], the Ki under setting [4] worked out at 9.3 nM.
Take `CN(C)c1cccc2c(S(=O)(=O)N3CCC(N4C(=O)OCc5ccccc54)CC3)cccc12` [Example 8b, 1-[1-(5-Dimethylamino-naphthyl-1-sulfonyl)-piperidine-4-yl]-1,4-dihydro-benzo[d][1,3]oxazine-2-one]: under setting [8], the inhibition at 1 µM amounted to 68%.
Regarding `CN(C)CCn1ccc2cc(NS(=O)(=O)c3c(Cl)nc4sccn34)ccc21` [Example 11e, N-[1-(2-dimethylaminoethyl)-1H-indole-5-yl]-6-chloroimidazo[2,1-b]thiazole-5-sulfonamide], the Ki under setting [6] is 1.89 nM.
In the case of `CN(C)CCn1ccc2ccc(NS(=O)(=O)c3ccc4ccccc4c3)cc21` [Example 2f, N-[1-(2-Dimethylaminoethyl)-1H-indol-6-yl]-naphthalene-2-sulfonamide], the inhibitory constant (Ki) turned out to be 41.2 nM and the inhibition at 1 µM was determined as 97.7%.
On to `CCN(CC)CCc1c[nH]c2ccc(NS(=O)(=O)c3ccc(-c4ccccc4)cc3)cc12` [Example 5c, N-[3-(2-diethylaminoethyl)-1H-indol-5-yl]-4-phenylbenzenesulphonamide], for which the Ki under setting [4] amounted to 1 nM.
In the case of `CN(C)CCn1ccc2c(NS(=O)(=O)c3ccc4ccccc4c3)cccc21` [Example 2d, N-[1-(2-dimethylaminoethyl)-1H-indole-4-yl]-naphtalene-2-sulfonamide], the “% Inhibition 10^−6 M” value under setting [5] was determined as 104.3%.
As for `CN(C)CCn1ccc2cc(NS(=O)(=O)c3cccc4c(Cl)cccc34)ccc21` [Example 4e, N-[1-(2-dimethylaminoethyl)-1H-indole-5-yl]-5-chloronaphthalene-1-sulfonamide], the Ki under setting [6] worked out at 112 nM.
In the case of `CN(C)CCn1ccc2ccc(NS(=O)(=O)c3c(Cl)nc4sccn34)cc21` [Example 4f, N-[1-(2-Dimethylaminoethyl)-1H-indol-6-yl]-6-chloroimidazo[2,1-b]thiazole-5-sulfonamide], the inhibition at 1 µM under setting [1] was 90.8%. Also, the Ki under setting [2] was found to be 55.2 nM.
`CCN(CC)CCc1c[nH]c2ccc(NS(=O)(=O)c3cccc4ccccc34)cc12` [Example 3c, Hydrochloride N-[3-(2-diethylaminoethyl)-1H-indol-5-yl]naphthalene-1-sulphonamide]: the inhibition constant Ki under setting [4] was determined as 3.5 nM.
For `Cc1cccc2c1N(C1CCN(S(=O)(=O)c3cccc4c(N(C)C)cccc34)CC1)C(=O)OC2` [Example 7b, 1-[1-(5-Dimethylamino-naphthyl-1-sulfonyl)-piperidine-4-yl]-8-Methyl-1,4-dihydro-benzo[d][1,3]oxazine-2-one], the inhibition at 1 µM under setting [8] worked out at 88%.
As to `CN(C)CCn1ccc2cc(NS(=O)(=O)c3cccc(Br)c3)ccc21` [Example 13e, N-[1-(2-dimethylaminoethyl)-1H-indole-5-yl]-3-bromobenzenesulfonamide], under setting [6], the inhibition constant (Ki) turned out to be 82.5 nM.
`CCN(CC)CCc1c[nH]c2ccc(NS(=O)(=O)c3ccc4ccccc4c3)cc12` [Example 17c, N-[3-(2-diethylaminoethyl)-1H-indol-5-yl]naphthalene-2-sulphonamide]: the Ki under setting [4] is 5.3 nM.
In the case of `CN1CCC(c2c[nH]c3ccc(NS(=O)(=O)c4cccc5ccccc45)cc23)CC1` [Example 13c, N-[3-(1-methylpiperidin-4-yl)-1H-indol-5-yl]naphthalene-1-sulphonamide hydrochloride], the Ki came out at 4.7 nM.
As to `Cc1c(S(=O)(=O)N2CCC(N3C(=O)OCc4ccccc43)CC2)sc2ccc(Cl)cc12` [Example 3b, 1-[1-(5-chloro-3-methyl-benzo[b]tiophene-2-sulfonyl)-piperidine-4-yl]-1,4-dihydro-benzo[d][1,3]oxazine-2-one], the Ki is 107 nM.
Turning to `CN(C)CCn1ccc2cc(NS(=O)(=O)c3cc(Cl)c(Cl)s3)ccc21` [Example 20e, N-[1-(2-dimethylaminoethyl)-1H-indole-5-yl]-4,5-dichlorothiophene-2-sulfonamide], under setting [6], the Ki stood at 84.8 nM.
